The values below are quoted from earlier work in article PMC11014758 (ACS infectious diseases, 2024).

Series [1] concerns the target T1, LasR (Pseudomonas aeruginosa, UniProt P25084). The settings on record: same strain, analogous assay conditions; ref Moore et al. 2015 [15].
For series [2], the target named is T1, LasR. The settings on record: same strain, analogous assay conditions; ref Moore et al. 2015 [15]. This is another data set of the same source.

pIC50: −log10 of the molar value.

T1 sequence (P25084 whole entry): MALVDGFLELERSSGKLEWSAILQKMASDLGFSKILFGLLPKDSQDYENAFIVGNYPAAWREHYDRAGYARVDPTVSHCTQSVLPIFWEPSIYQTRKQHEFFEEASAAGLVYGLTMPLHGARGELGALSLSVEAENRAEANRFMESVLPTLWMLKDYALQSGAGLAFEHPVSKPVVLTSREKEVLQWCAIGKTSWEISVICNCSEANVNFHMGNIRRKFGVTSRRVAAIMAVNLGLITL

In the case of `CCCCCCCCCC(=O)CC(=O)N[C@H]1CCOC1=O` [OdDHL, N-(3-oxo)-dodecanoyl L-homoserine lactone], at LasR [1], the “Maximum Activation” value was 100%.

The term pIC50 denotes −log10 of the IC50, conventionally taken in molar units. Regarding chlorolactone [CL], at LasR [2], the pIC50 was 4.68 and the “Maximum Inhibition” value is listed as 55%.

On to `CCCCCCCCCNC(=O)CC(=O)c1ccccc1` [V-06–018], for which the pIC50 at LasR [2] is 5.28.
